Patent publication US10780094B2, “Use of carbonic anhydrase inhibitors for treatment of neurological and psychiatric disorders” (New York University, priority 2016, dated 2020)

Legend:
SH-SY5Y and D3 cells = assay: Aβ-induced cell death pathways (caspase 3 and 9 activation, CytC release, apoptosis); assay type: cell-based, human
Procedure: SH-SY5Y and D3 cells were plated on 15 mm optical borosilicate poly-L-lysine-coated sterile glass covers (ThermoFisher, Waltham, Mass., US) at a 70% confluence. After 24 hours, cells were treated with the peptides, the drugs or the different combinations of both of them, rinsed in PBS 1×, and fixed with 4% paraformaldehyde for 20 minutes. After that, the coverslips were washed once for 5 minute with PBS 1×, room temperature and twice for 5 minutes with cold PBS 1×. Cells were then permeabilized and blocked for 1 h with BSA 20 mg/mL+Triton 0.3% on PBS and incubated with the anti-active caspase-3 antibody, on PBS containing BSA 5 mg/mL, for 2 h. Next, cells were washed three times for 5 min each with PBS 1× and incubated with the secondary antibody (Alexa Fluor 488 anti-mouse antibody), at a 1:200 dilution in PBS containing BSA 5 mg/mL for an additional hour in the dark. Cells were then washed three times in the dark with 1 mL of PBS 1× and mounted on cover slips (ThermoFisher, Waltham, Mass., US). After mounting, cells were imaged, using a Nikon Eclipse Ti inverted microscope with a 20× objective (Nikon, Chiyoda. Tokyo, Japan).
Cells were plated at a confluence of 10.000 cells per well in 96-wells microplate luminescence microtiter (ThermoFisher, Waltham, Mass., US). The day after, cells were treated with the peptides and/or drugs for the experimental times. After that, caspase-Glo 9 assay was performed, following the protocol provided from the manufacturer. Luminescence was measured using a FlexStation 3 Multi-Mode Microplate Reader (Molecular devices, Sunnyvalem Calif., US).
20.000 cells per well were plated on 24-wells plates. The day after, cells were treated with peptides and/or drugs, following the experimental conditions.

[1] = Wright et al., 2008; cited from earlier work
Aβ42 and Aβ40-Q22 = target: T1, Aβ42 and Aβ40-Q22 (Homo sapiens, UniProt P05067, E693Q); assay: Native gel electrophoresis and Western blot of Aβ aggregation species; conditions: presence or absence of the CAI; 1 hour, 1 day, 3 days
T1 construct: purchased James I. Elliott at Yale University (custom chemical peptide synthesis)
Procedure: Electrophoretic analysis for assessment of peptide aggregation in the presence or absence of MTZ was performed under native conditions using 5-30% gradient polyacrylamide gels, in absence of SDS, using 25 mM Tris/glycine, pH 8.8, as running buffer, as previously described (Fossati et al., 2010). Aβ oligomerization patterns were visualized by subsequent WB analysis. Briefly, proteins were electrotransferred to nitrocellulose membranes ([…] pore size; Hybond-ECL, GE Healthcare Life Sciences, Piscataway, N.J.) at 400 mA for 2.5 h, using 10 mM 3-cyclohexylamino-1-propanesulfonic acid (CAPS; Sigma) buffer, pH 11.0, containing 10% (v/v) methanol. After blocking with 5% nonfat milk in TBS containing 0.1% Tween 20 (TBST), membranes were immunoreacted with a combination of mouse monoclonal anti-Aβ antibodies 4G8 (epitope: residues Aβ18-22) and 6E10 (epitope: residues Aβ3-8), both from Covance (Princeton, N.J.), at 1:3000 dilution each, followed by HRP-labeled anti-mouse IgG and ECL chemistry (Fossati et al., 2010).

[2] = system: cerebral microvascular endothelial cells (D3); assay: Aβ-induced mitochondrial Cytochrome C release; assay type: cell-based, human; conditions: Example 3
Procedure: Both EC and SH-SY5Y cells were plated on to glass chamber slides (Thermo Fisher Scientific), pre-coated with either collagen-I or poly-d-lysine (for ECs and SH-SY5Y cells respectively). After seeding, cells were allowed to attach for 1 day before treatment with the different peptides for 1-3 days, as above. Cells were washed with ice-cold PBS, fixed with 4% paraformaldehyde (10 min at room temperature) and blocked for 1 h with 20 mg/ml BSA in PBST (PBS containing 0.3% Triton X-100). Slides were further incubated with mouse anti-CytC monoclonal antibody (BD Biosciences; 1:200 dilution in PBST containing 5 mg/ml BSA; 2 h at room temperature) followed by Alexa Fluor® 488-conjugated anti-(mouse IgG) antibody (Invitrogen; 1:200 in PBST with 5 mg/ml BSA; 1 h at room temperature). Fluorescence signals were visualized in a Nikon Eclipse E 800 deconvolution microscope using NIS Elements software (Nikon Instruments) for image acquisition and processing, and AutoQuant (Media Cybernetics) for 3D deconvolution. The effect of methazolamide in preventing the Aβ-induced release of CytC from the mitochondria into the cytoplasm was evaluated in EC and SH-SY5Y cultures. […]

[3] = system: caspase 3/7 in glial cells; assay: Active caspase 3 staining and Caspase-Glo 3/7 activity after Aβ challenge; assay type: cell-based, human; conditions: Aβ co-incubated with MTZ at both concentrations (100, 300 μM); 24 hours
Procedure: (§1) Caspase 9 and caspase 3/7 activation was measured by luminescent assays (Caspase-Glo 9 and caspase-Glo 3/7, Promega, Madison, Wis.), in cells treated with the Aβ peptides in DMEM without FBS. Briefly, 10,000 cells/well were plated in 96 wells plates and incubated for 24 hours with the freshly solubilized Aβ peptides. Caspase-Glo reagent was added to the cell cultures resulting in cell lysis, followed by caspase cleavage of the substrate and generation of a luminescent signal produced by the luciferase reaction. After 40 minutes incubation, the amount of caspase activity was evaluated in a plate-reading luminometer (Synergy HT Multi-Mode Microplate Reader, Biotek, Winooski, Vt.) as described in (Fossati et al., 2012b). To inhibit non-specific background activity, the proteasome inhibitor MG-132 was added to the Caspase-Glo reagent before the experiment as indicated by the manufacturer. In all cases results are expressed as fold-change compared to untreated control cells.
(§2) SHSY-5Y and Glioma cells were plated on chamber slides as above. Slides were pre-coated with Poly-D-Lysine 30 μg/ml for 2 hours for SHSY-5Y cells. […]

[4] = system: caspase 3/7 in neuronal SHSY-5Y cells; assay: as above; assay type: cell-based, human; conditions: Aβ co-incubated with MTZ at both concentrations (100, 300 μM); 24 hours
Procedure: as §1, §2

Structure (SMILES)	caspase activation and CytC release induced by Aβ (SH-SY5Y and D3 cells; ATZ)	effective concentration lower than that of MTZ (SH-SY5Y and D3 cells; ATZ versus MTZ) [times]	nuclear chromatin condensation indicative of apoptosis (SH-SY5Y and D3 cells; Aβ challenge, FIGS. 16A-16B)	well tolerated daily dose in humans [1] [mg]	Aβ aggregation species in native gels (Aβ42 and Aβ40-Q22)	CytC localization (immunocytochemistry) ([2]; Aβ40-Q22 25 μM or Aβ40/42 WT 10 μM, 24 h)	release of CytC, cells with diffuse green staining as % of total cells ([2]; FIG. 23B)	active-caspase 3 staining and activity of caspases 3/7 [3]	active-caspase 3 staining and activity of caspases 3/7 [4]
CC(=O)Nc1nnc(S(N)(=O)=O)s1 [ATZ, acetazolamide]	completely reverting	10	prevented	≤ 1000					
CC(=O)/N=c1/sc(S(N)(=O)=O)nn1C [MTZ, methazolamide]					did not differ	retained in the mitochondria	prevented	greatly suppressed	greatly suppressed
